# Measured values published in patent US20210163976A1, “GENETICALLY ALTERED PLANTS EXPRESSING HETEROLOGOUS RECEPTORS THAT RECOGNIZE LIPO-CHITOOLIGOSACCHARIDES” (Aarhus Universitet, priority 2018, published 2021).
# “Also recorded” adds a separate entry of the source.
# Tests used:
# Medicago NFP ectodomain = molecular target: T1, Medicago NFP ectodomain (Medicago truncatula, UniProt Q0GXS4); assay: Microscale thermophoresis (MST) binding of ligands to labelled NFP; settings: carbohydrate ligands
# T1 construct: The Medicago truncatula NFP ectodomain (residues 28-246) was codon-optimized; AcMNPV gp67 signal peptide (replaces native signal peptide 1-27) (N); made in house; host or cells: Sf9 (Spodoptera frugiperda), baculovirus, secreted into medium
# T1 sequence (Q0GXS4 28-246): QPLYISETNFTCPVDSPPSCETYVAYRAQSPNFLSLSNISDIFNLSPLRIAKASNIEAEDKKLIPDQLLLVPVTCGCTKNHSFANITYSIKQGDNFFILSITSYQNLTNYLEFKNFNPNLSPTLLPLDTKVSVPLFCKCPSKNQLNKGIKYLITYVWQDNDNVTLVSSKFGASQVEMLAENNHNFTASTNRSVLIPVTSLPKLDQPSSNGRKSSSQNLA
# Method: Expression and purification of Medicago NFP ectodomain: The Medicago truncatula NFP ectodomain (residues 28-246) was codon-optimized for insect cell expression (Genscript, Piscataway, USA) and cloned into the pOET4 baculovirus transfer vector (Oxford Expression Technologies). The native NFP signal peptide (residues 1-27, predicted by SignalP 4.1) was replaced with the AcMNPV gp67 signal peptide to facilitate secretion and a hexa-histidine tag was added to the C-terminus. Point mutants of NFP were engineered using site-directed mutagenesis. Recombinant baculoviruses were produced in Sf9 cells (Spodoptera frugiperda) using the FlashBac Gold kit (Oxford Expression technologies) according to the manufacturer's instructions with Lipofectin (ThermoFisher Scientific) as a transfection reagent. Protein expression was performed as follows. Suspension-cultured Sf9 cells were maintained with shaking at 299 K in serum-free MAX-XP (BD-Biosciences, discontinued) or HyClone SFX (GE Healthcare) medium supplemented with 1% Pen-Strep (10000 U/ml, Life technologies) and 1% CD lipid concentrate (Gibco). Protein expression was induced by adding recombinant passage 3 virus once the Sf9 cells reached a cell density of 1.0*10^7^6 cells/ml. After 5-7 days of expression, medium supernatant containing NFP ectodomains was harvested by centrifugation. […]
# [1] = molecular target: T2, Medicago NFP ectodomain (NFP-ECD, WT) (Medicago truncatula, UniProt Q0GXS4); assay: Biolayer interferometry (BLI) binding of NFP-ECD to immobilized biotinylated ligands; settings: further BLI assays, FIGS. 15B-15E; listed as chitin
# T2 construct: The Medicago truncatula NFP ectodomain (residues 28-246) was codon-optimized; AcMNPV gp67 signal peptide (replaces native signal peptide 1-27) (N); made in house; host or cells: Sf9 (Spodoptera frugiperda), baculovirus, secreted into medium
# T2 sequence (Q0GXS4 28-246): T1 sequence (Q0GXS4 28-246)
# Method: (§1) Expression and purification of Medicago NFP ectodomain: The Medicago truncatula NFP ectodomain (residues 28-246) was codon-optimized for insect cell expression (Genscript, Piscataway, USA) and cloned into the pOET4 baculovirus transfer vector (Oxford Expression Technologies). The native NFP signal peptide (residues 1-27, predicted by SignalP 4.1) was replaced with the AcMNPV gp67 signal peptide to facilitate secretion and a hexa-histidine tag was added to the C-terminus. Point mutants of NFP were engineered using site-directed mutagenesis. Recombinant baculoviruses were produced in Sf9 cells (Spodoptera frugiperda) using the FlashBac Gold kit (Oxford Expression technologies) according to the manufacturer's instructions with Lipofectin (ThermoFisher Scientific) as a transfection reagent. Protein expression was performed as follows. Suspension-cultured Sf9 cells were maintained with shaking at 299 K in serum-free MAX-XP (BD-Biosciences, discontinued) or HyClone SFX (GE Healthcare) medium supplemented with 1% Pen-Strep (10000 U/ml, Life technologies) and 1% CD lipid concentrate (Gibco). Protein expression was induced by adding recombinant passage 3 virus once the Sf9 cells reached a cell density of 1.0*10^7^6 cells/ml. After 5-7 days of expression, medium supernatant containing NFP ectodomains was harvested by centrifugation. This was followed by an overnight dialysis step against 50 mM Tris-HCl pH 8, 200 mM NaCl at 277 K. The NFP ectodomain was enriched by two subsequent steps of Ni-IMAC purification (HisTrap excel/HisTrap HP, both GE Healthcare). For crystallography experiments, N-glycans were removed using the endoglycosidase PNGase F (1:15 (w/w), room temperature, overnight). As a final purification step, NFP ectodomain was purified by SEC on a Superdex 200 10/300 or HiLoad Superdex 200 16/600 (both GE Healthcare) in phosphate buffered saline at pH 7.2 supplemented to a total of 500 mM NaCl (for binding assays) or 50 mM Tris-HCl, 200 mM NaCl (for crystallography). NFP ectodomain elutes as a single, homogeneous peak corresponding to a monomer. Point mutated versions of NFP were expressed and purified following the same protocol.
# (§2) Biolayer interferometry (BLI): Binding of NFP and mutated versions of NFP to ligands was measured on an Octet RED 96 system (Pall ForteBio). The ligands used were LCO-IV (from S. meliloti), LCO-V (from S. meliloti), LCO-V (from M. loti), and C06 (from M. loti). S. meliloti LCO consists of a tetrameric/pentameric N-acetylglucosamine backbone that is 0-sulfated on the reducing terminal residue, 0-acetylated on the non-reducing terminal residue, and mono-N-acylated by unsaturated C16 acyl groups. M. loti LCO is a pentameric N-acetylglucosamine with a cis-vaccenic acid and a carbamoyl group at the non-reducing terminal residue together with a 2,4-O-acetylfucose at the reducing terminal residue. Biotinylated ligand conjugates were immobilized on streptavidin biosensors (kinetic quality, Pall ForteBio) at a concentration of 125-250 nM for 5 minutes. The binding assays using the S. meliloti ligands (LCO-IV and LCO-V) were replicated seven times, while the binding assays using the M loti ligands (LCO-V and C06) were replicated six times. Data analysis was performed in GraphPad Prism 6 software (GraphPad Software, Inc.). Equilibrium dissociation constants derived from the steady-state were determined by applying a non-linear regression (one site, specific binding) to the response at equilibrium plotted against the protein concentration. Kinetic parameters were determined by non-linear regression (association followed by dissociation) on the subtracted data.
# (§3) Mutated lipochitooligosaccharide (LCO) ligands: S. meliloti LCO consists of a tetrameric/pentameric N-acetylglucosamine backbone that is O-sulfated on the reducing terminal residue, O-acetylated on the non-reducing terminal residue, and mono-N-acylated by unsaturated C16 acyl groups. […]
# HvRLK10 ectodomain = assay: BLI binding of HvRLK10 ectodomain to ligands; design: species or system H. vulgare; settings: FIGS. 13A, 13C, 13D
# [2] = molecular target: T3, Medicago truncatula NFP ectodomain (NFP-ECD, residues 28-246), wild type, SEQ ID NO: 1 (Medicago truncatula, UniProt Q0GXS4); assay: Biolayer interferometry (BLI) binding of NFP / NFP-ECD to immobilized LCO and CO ligands; settings: further BLI assays, FIGS. 15B-15E, analyte 1.56-100 μM; listed as chitin
# T3 construct: The Medicago truncatula NFP ectodomain (residues 28-246); AcMNPV gp67 signal peptide (replaces native signal peptide 1-27) (N); hexa-histidine tag (C); made in house; host or cells: Sf9 cells (Spodoptera frugiperda), baculovirus
# Method: as §1, §2, §3
# [3] = molecular target: T3, Medicago truncatula NFP ectodomain (NFP-ECD, residues 28-246), wild type, SEQ ID NO: 1; assay: Microscale thermophoresis (MST) binding of NFP to carbohydrate ligands
# Method: as §1, with “Point mutated versions of NFP were expressed and purified following the same protocol.” left out
# [4] = molecular target: T4, Hordeum vulgare RLK10 (HvRLK10; HvLysM-RLK10) ectodomain (residues 25-231), SEQ ID NO: 29 (construct SEQ ID NO: 28) (Hordeum vulgare, UniProt A0A8I6Y103); assay: BLI binding of barley HvRLK10 ectodomain; design: species or system Hordeum vulgare (barley); settings: FIGS. 13A, 13C-13D
# T4 construct: full-length natural protein 633 aa beginning […]
# T4 sequence (A0A8I6Y103 25-231): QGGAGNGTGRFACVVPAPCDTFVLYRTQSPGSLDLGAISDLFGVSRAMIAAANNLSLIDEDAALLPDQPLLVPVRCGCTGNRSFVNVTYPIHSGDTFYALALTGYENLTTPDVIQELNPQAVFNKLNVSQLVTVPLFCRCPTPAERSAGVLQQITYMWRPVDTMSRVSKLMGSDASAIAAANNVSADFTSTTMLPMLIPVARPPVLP
molecule,measurement,setting,value
maltohexaose,binding to NFP (MST),Medicago NFP ectodomain,not able to bind
CC(=O)N[C@H]1[C@H](O[C@H]2[C@H](O)[C@@H](NC(C)=O)[C@H](O[C@H]3[C@H](O)[C@@H](NC(C)=O)C(O)O[C@@H]3CO)O[C@@H]2CO)O[C@H](CO)[C@@H](O[C@@H]2O[C@H](CO)[C@@H](O[C@@H]3O[C@H](CO)[C@@H](O)[C@H](O)[C@H]3NC(C)=O)[C@H](O)[C@H]2NC(C)=O)[C@@H]1O (stereo partly shown) [CO5],NFP-ECD binding (BLI),[1],did not bind; also recorded: does not bind
same,HvRLK10 ectodomain binding (BLI),HvRLK10 ectodomain,did not bind
same,Binding to NFP-ECD (in words),[2],did not bind; also recorded: does not bind
same,Kd,[3]; read-out: Dissociation constant (Kd),93 µM
same,Binding to HvRLK10 ectodomain (in words),[4],did not bind
OC[C@H]1O[C@H](O[C@H]2[C@H](O)[C@@H](O)[C@@H](O[C@H]3[C@H](O)[C@@H](O)[C@@H](O[C@H]4[C@H](O)[C@@H](O)[C@@H](O[C@H]5[C@H](O)[C@@H](O)[C@@H](O[C@H]6[C@H](O)[C@@H](O)C(O)O[C@@H]6CO)O[C@@H]5CO)O[C@@H]4CO)O[C@@H]3CO)O[C@@H]2CO)[C@H](O)[C@@H](O)[C@@H]1O (stereo partly shown) [maltohexaose],Binding to NFP (in words),[3],not able to bind
